Test results published in patent publication US20250205205A1, “METHODS AND COMPOSITIONS FOR PREVENTING AND TREATING FIBROSIS AND IMPROVING FUNCTIONAL RECOVERY AFTER INJURY OR WITH AGING” (East Carolina University, priority 2022, published 2025).

What was measured:
sciatic nerve injury = assay: Pain withdrawal reflex latencies after unilateral sciatic nerve injury and long-term treatment (FIG. 3); assay type: in vivo; conditions: unilateral sciatic nerve injury; long-term treatment; PPX 0.5 mg/kg, morphine 1 mg/kg, alone or combined
Text: Filled circles show the reflex data of the injured side of the animal. […] Filled circles show the reflex data of the injured side of the animal. […] Filled circles show the reflex data of the injured side of the animal.

sciatic nerve = assay: Sciatic nerve function: compound action potentials (CAPs) on electrical stimulation after sciatic nerve injury and long-term treatment (FIG. 2); assay type: in vivo; conditions: sciatic nerve injury; daily treatments of 100 μl in saline; PPX 0.5 mg/kg, morphine 1 mg/kg, alone or combined; representative animal
Experimental: FIG. 2 depicts the in vitro effects of different long-term treatments on sciatic nerve function, as assessed by the response profiles of these nerves to electrical stimulation.
The CAP is an indicator of electrical activity in the nerve that is required for normal transmission of sensory information.
The effects in vitro of long-term treatments on sciatic nerve function were assessed by the response profiles of these nerves to electrical stimulation as shown in FIG. 2.

## CN1CC[C@]23c4c5ccc(O)c4O[C@H]2[C@@H](O)C=C[C@H]3[C@H]1C5 [morphine]
Sciatic nerve injury
  pain withdrawal reflex latencies of the injured side versus pre-injury data (days −3 to −1): did not lead to a recovery of withdrawal latencies to pre-injury data
Sciatic nerve
  compound action potential (CAP) on stimulation of the nerve on the injured side: failed to elicit a similarly strong CAP
